Measured values: the NIST ThermoML archive (doi:10.1016/j.jct.2007.07.002)

Settings: Gas, double Helmholtz acoustic resonator

F[Si](F)(F)F [silicon tetrafluoride]
Settings	kinematic viscosity [m2/s]	speed of sound [m/s]
215 K, 198.15 kPa	1.06e-06	136.99
215 K, 283.66 kPa	7.32e-07	135.34
215 K, 378.5 kPa	5.24e-07	133.42
215 K, 461.43 kPa	4.37e-07	131.7
215 K, 551.52 kPa	3.6e-07	129.72
215 K, 649.39 kPa	3.03e-07	127.46
215 K, 746.64 kPa	2.59e-07	125.06
230 K, 271.49 kPa	8.88e-07	141.02
230 K, 424.62 kPa	5.63e-07	138.59
230 K, 578.31 kPa	3.98e-07	136.01
230 K, 742.99 kPa	2.84e-07	133.07
230 K, 897.83 kPa	2.5e-07	130.19
230 K, 1088.3 kPa	2.9e-07	126.35
230 K, 1251 kPa	1.76e-07	122.68
245 K, 248.32 kPa	1.09e-06	146.4
245 K, 393.67 kPa	6.6e-07	144.55
245 K, 542.46 kPa	4.92e-07	142.59
245 K, 703.75 kPa	3.7e-07	140.39
245 K, 873.41 kPa	2.95e-07	138
245 K, 1034.5 kPa	2.46e-07	135.63
245 K, 1220 kPa	2.08e-07	132.78
245 K, 1434.3 kPa	1.74e-07	129.26
245 K, 1599.8 kPa	1.55e-07	126.37
245 K, 1777.8 kPa	1.4e-07	123.04
245 K, 1958.5 kPa	1.25e-07	119.34
260 K, 206.14 kPa	1.34e-06	151.46
260 K, 410.06 kPa	7.49e-07	149.46
260 K, 617.98 kPa	4.82e-07	147.22
260 K, 830.76 kPa	3.54e-07	144.88
260 K, 1047.1 kPa	2.74e-07	142.41
260 K, 1252 kPa	2.3e-07	140.01
260 K, 1498.2 kPa	1.91e-07	137.01
260 K, 1794.3 kPa	1.58e-07	133.23
260 K, 2026.6 kPa	1.39e-07	130.08
260 K, 2282.2 kPa	1.25e-07	126.45
260 K, 2541.7 kPa	1.1e-07	122.51
274.58 K, 524.86 kPa	6.36e-07	153.14
274.58 K, 642.96 kPa	5.09e-07	152.03
274.58 K, 744.26 kPa	4.24e-07	151.15
274.58 K, 845.26 kPa	3.88e-07	150.26
274.58 K, 947.16 kPa	3.48e-07	149.34
274.58 K, 1048.3 kPa	3.11e-07	148.41
274.58 K, 1150.3 kPa	2.86e-07	147.47
274.58 K, 1252.2 kPa	2.59e-07	146.53
274.58 K, 1353.8 kPa	2.42e-07	145.57
274.58 K, 1454.6 kPa	2.28e-07	144.62
274.58 K, 1556 kPa	2.09e-07	143.64
274.58 K, 1657.9 kPa	2.01e-07	142.67
274.58 K, 1764.4 kPa	1.82e-07	141.62
274.58 K, 1878.1 kPa	1.7e-07	140.5
274.58 K, 1998.5 kPa	1.64e-07	139.34
274.58 K, 2141.9 kPa	1.52e-07	137.92
274.58 K, 2244.2 kPa	1.42e-07	136.85
274.58 K, 2354.1 kPa	1.36e-07	135.74
274.58 K, 2474 kPa	1.31e-07	134.5
274.58 K, 2776.6 kPa	1.15e-07	131.33
274.58 K, 2951.3 kPa	1.08e-07	129.47
300 K, 386.04 kPa	1.14e-06	161.89
300 K, 581.57 kPa	7.42e-07	160.87
300 K, 775.29 kPa	5.2e-07	159.49
300 K, 975.51 kPa	4.04e-07	158.17
300 K, 1173.9 kPa	3.25e-07	156.88
300 K, 1443.4 kPa	2.69e-07	155.17
300 K, 1648.7 kPa	2.37e-07	153.86
300 K, 1872.1 kPa	2.11e-07	152.44
300 K, 2157.9 kPa	1.71e-07	150.6
300 K, 2526.1 kPa	1.53e-07	148.3
324.96 K, 582.54 kPa	8.84e-07	168.12
324.96 K, 731.36 kPa	6e-07	167.21
324.96 K, 1070.8 kPa	4.22e-07	165.71
324.96 K, 1257.4 kPa	3.6e-07	164.87
324.96 K, 1487.6 kPa	3.1e-07	163.84
324.96 K, 1769 kPa	2.59e-07	162.6
324.96 K, 1936.2 kPa	2.42e-07	161.88
324.96 K, 2114.4 kPa	2.11e-07	161.1
324.96 K, 2322.2 kPa	1.99e-07	160.23
324.96 K, 2541 kPa	1.84e-07	159.34

FS(F)(F)(F)(F)F [sulfur hexafluoride]
273.16 K
Settings	kinematic viscosity [m2/s]	speed of sound [m/s]
290.38 kPa	7.19e-07	126.14
386.66 kPa	5.33e-07	124.46
492.4 kPa	4.1e-07	122.54
602.05 kPa	3.28e-07	120.45
712.29 kPa	2.72e-07	118.25
808.73 kPa	2.35e-07	116.21
903.28 kPa	2.24e-07	114.14
1000.5 kPa	1.81e-07	111.81

[C-]#[O+] [carbon monoxide]
Settings	kinematic viscosity [m2/s]	speed of sound [m/s]
225 K, 250.04 kPa	3.74e-06	305.59
225 K, 371.9 kPa	2.5e-06	305.42
225 K, 499.99 kPa	1.86e-06	305.4
225 K, 560.56 kPa	1.68e-06	305.34
225 K, 743.07 kPa	1.25e-06	305.24
225 K, 750 kPa	1.23e-06	305.26
225 K, 934.61 kPa	1e-06	305.14
225 K, 1000 kPa	9.4e-07	305.15
225 K, 1141.5 kPa	8.17e-07	305.06
225 K, 1250 kPa	7.36e-07	305.04
225 K, 1345.6 kPa	6.95e-07	304.99
225 K, 1500 kPa	6.19e-07	304.99
225 K, 1581.5 kPa	5.88e-07	304.94
225 K, 1750 kPa	5.32e-07	304.95
225 K, 1787.1 kPa	5.2e-07	304.91
225 K, 2000 kPa	4.66e-07	304.94
225 K, 2016.1 kPa	4.63e-07	304.91
225 K, 2264 kPa	4.14e-07	304.94
225 K, 2454.7 kPa	3.79e-07	304.96
250 K, 221.65 kPa	5.37e-06	322.56
250 K, 401.55 kPa	2.88e-06	322.4
250 K, 587.83 kPa	1.95e-06	322.43
250 K, 791.25 kPa	1.45e-06	322.51
250 K, 982.55 kPa	1.16e-06	322.58
250 K, 1169.1 kPa	9.78e-07	322.67
250 K, 1392.3 kPa	8.19e-07	322.79
250 K, 1587.8 kPa	7.19e-07	322.93
250 K, 1808.2 kPa	6.28e-07	323.08
250 K, 2050.1 kPa	5.56e-07	323.27
250 K, 2241.5 kPa	5.08e-07	323.44
275 K, 250.64 kPa	5.04e-06	338.34
275 K, 286.53 kPa	4.39e-06	338.19
275 K, 465.9 kPa	2.83e-06	338.32
275 K, 500.41 kPa	2.7e-06	338.48
275 K, 652.16 kPa	2.07e-06	338.54
275 K, 750 kPa	1.84e-06	338.76
275 K, 832.04 kPa	1.63e-06	338.75
275 K, 1000 kPa	1.37e-06	338.99
275 K, 1045.4 kPa	1.3e-06	338.99
275 K, 1250 kPa	1.11e-06	339.26
275 K, 1252.2 kPa	1.09e-06	339.22
275 K, 1443.1 kPa	9.45e-07	339.46
275 K, 1500 kPa	9.2e-07	339.57
275 K, 1675 kPa	8.12e-07	339.74
275 K, 1750 kPa	7.89e-07	339.89
275 K, 1882.7 kPa	7.23e-07	340.02
275 K, 2000 kPa	6.96e-07	340.23
275 K, 2150.8 kPa	6.33e-07	340.38
275 K, 2364.7 kPa	5.79e-07	340.69
300 K, 252.56 kPa	6.71e-06	353.44
300 K, 501.19 kPa	3.25e-06	353.74
300 K, 709.53 kPa	2.28e-06	354
300 K, 1000 kPa	1.64e-06	354.52
300 K, 1178.1 kPa	1.39e-06	354.78
300 K, 1250 kPa	1.31e-06	354.91
300 K, 1374 kPa	1.2e-06	355.09
300 K, 1481.5 kPa	1.12e-06	355.27
300 K, 1500 kPa	1.1e-06	355.32
300 K, 1602.1 kPa	1.03e-06	355.46
300 K, 1730.3 kPa	9.55e-07	355.67
300 K, 1750 kPa	9.47e-07	355.74
300 K, 1868 kPa	8.89e-07	355.91
300 K, 2000 kPa	8.32e-07	356.15
300 K, 2005.3 kPa	8.27e-07	356.15
325 K, 303.08 kPa	5.93e-06	367.79
325 K, 515.56 kPa	3.49e-06	368.11
325 K, 732.01 kPa	2.49e-06	368.52
325 K, 943.23 kPa	1.94e-06	368.91
325 K, 1169.7 kPa	1.57e-06	369.33
325 K, 1401.2 kPa	1.31e-06	369.77
325 K, 1633.9 kPa	1.12e-06	370.22
325 K, 1908.7 kPa	9.62e-07	370.77
325 K, 2129.6 kPa	8.63e-07	371.22
325 K, 2413.1 kPa	7.66e-07	371.82
350 K, 342.4 kPa	6.04e-06	381.63
350 K, 544.1 kPa	3.84e-06	382.06
350 K, 775.52 kPa	2.69e-06	382.52
350 K, 1007.1 kPa	2.06e-06	382.99
350 K, 1245.1 kPa	1.68e-06	383.51
350 K, 1461.5 kPa	1.43e-06	383.96
350 K, 1735.1 kPa	1.21e-06	384.56
350 K, 1995.6 kPa	1.05e-06	385.14
350 K, 2208.2 kPa	9.51e-07	385.62
350 K, 2464.2 kPa	8.55e-07	386.21
375 K, 260.28 kPa	8.45e-06	394.36
375 K, 460.71 kPa	4.99e-06	394.79
375 K, 672.43 kPa	3.42e-06	395.31
375 K, 885.97 kPa	2.63e-06	395.84
375 K, 1102.9 kPa	2.13e-06	396.34
375 K, 1302.3 kPa	1.81e-06	396.82
375 K, 1537.5 kPa	1.53e-06	397.37
375 K, 1815.6 kPa	1.3e-06	398.04
375 K, 2026.2 kPa	1.16e-06	398.56
375 K, 2250.6 kPa	1.05e-06	399.12
375 K, 2518.2 kPa	9.4e-07	399.8
